Measured values: US20260315653A1, “ANTICOAGULANT COMPOSITIONS COMPRISING ANTI-PLATELET AND ANTI-INFLAMMATORY DRUGS AND METHODS AND DEVICES FOR THEIR USE” (Elixir Medical Corporation, priority 2023, published 2026)
Entries after “also recorded” stand apart in the source; their conditions may differ. Values belong to the compound of their own block, whether it stands above or below them.

Assays:
[1] = test system: blood clotting (citrated sheep blood); experiment: Activated clotting time (ACT) in citrated sheep blood (Example 2); settings: single drug, 0.6 ng/mg
Protocol: The activated clotting time (ACT) evaluation of anticoagulants was performed in calcium citrate sheep blood and recorded employing the Hemochron® Response device.
The ACT measurements were made in citrated sheep blood. 1.9 ml of citrated sheep blood was added to a test tube containing an activator (Hemochron@Celite@ ACT tubes, Lot F8FTE026 from Accriva Diagnostics, Inc.). A target amount of drug solution was then added into the test tube. The test tube was gently swirled so that the blood and drug was well-mixed. 0.1 ml of 0.3M calcium chloride was then added. The tube was gently shaken before being inserted into the Hemochron Response detector. The ACT read out was recorded and reported. The ACT of the control blood in the absence of any drug as first determined to establish a baseline. Then ACT was determined in the presence of different concentrations of the drug as a single component. Selected drug combinations were then tested to evaluate for potential synergy in action between the two drugs.

porcine coronary artery = experiment: In vivo porcine coronary stent implantation: fibrin score and late lumen loss (Examples 25-26); settings: for inhibition of fibrin formation compared to control: Table 10, 7 days and 28 days
Protocol: The drug eluting stent systems containing different anticoagulants prepared as described in Example 11 were evaluated at 3 hours, 6 hours, 1 day, 3 days, 6 days, 7 days, or 28 days following implantation in a porcine coronary artery model.
The porcine model was chosen as this model has been used extensively for stent and angioplasty studies resulting in a large volume of data on the vascular response properties and its correlation to human vascular response (Schwartz et al, Circulation. 2002; 106:1867 1873). The animals were housed and cared for in accordance with the Guide for the Care and Use of Laboratory Animals as established by the National Research Council.
After induction of anesthesia, the left or right femoral artery was accessed using standard techniques and an arterial sheath was introduced and advanced into the artery. Vessel angiography was performed under fluoroscopic guidance, a 7 Fr. guide catheter was inserted through the sheath and advanced to the appropriate location where intracoronary nitroglycerin was administered. An appropriate implantation segment of coronary artery was randomly selected and a 0.014″ guidewire inserted. Quantitative Coronary Angiography (QCA) was performed to document the results. The appropriately size stent was advanced to the deployment site. The balloon was inflated at a steady rate to a pressure sufficient to achieve a balloon to artery ratio of approximately 1.1 to 1.0.
Follow up angiography was performed at the designated timepoint for each of the animals. Late lumen loss (LLL) can be expressed as: […]
The LLL is an indicator of the amount smooth muscle cell (SMC) proliferation or inhibition. It is used to measure efficacy between drugs for SMC proliferation inhibition. The smaller the LLL, the better the efficacy of the drug.
Stented portions of coronary arteries were embedded in methyl methacrylate (MMA), then divided into a target of at least three blocks of approximately similar lengths for histology evaluation. Quantitative histopathological evaluation of stented artery sections was then performed and scored as indicated. For Fibrin formation, scores ranged from 0 to 3, with a score of 0 indicating absent or rare minimal spotting around struts of the stent, a score of 1 indicating the presence of fibrin in small amounts localized only around the struts, a score of 2 indicating the moderately abundant or denser presence of fibrin around and extending beyond the struts, and a score of 3 indicating the presence of abundant and dense fibrin and/or bridging of the fibrin between the struts. The mean score was calculated and reported. The mean of each section was then averaged to provide a mean fibrin score per stent. The smaller the fibrin score, the better efficacy.

[2] = test system: platelets (Tissue factor generated antiplatelet); settings: cited from earlier work
[3] = test system: blood clotting (heparinized sheep blood); experiment: Net ACT initiated by platelet activation factor (PAF) and CaCl2 in heparinized sheep blood (Examples 6-11); settings: single drug, 0.05 ng/mg; PAF & CaCl2; blood control 235 seconds
Protocol: In order to examine the potential synergistic effects between anti-inflammatory agents, direct factor Xa inhibitors, direct factor IIa inhibitors, antiplatelets (P2Y12 inhibitor and glycoprotein IIb/IIIa inhibitor, platelet activation factor and CaCl2 were utilized by measuring ACT. Heparinized sheep blood was used to preserve platelet function.
The activated clotting time (ACT) evaluation initiated by platelet activation factor (PAF) and calcium chloride (CaCl2) was performed in heparinized sheep blood and recorded employing the Hemochron® Response device. […] A target amount of drug solution was then added into the test tube. The test tube was gently swirled so that the blood and drug were well-mixed. […] The tube was gently shaken before being inserted into the Hemochron Response detector. The ACT read out was recorded and reported. The ACT of the control heparinized sheep blood in the absence of any drug as first measured to establish a baseline. […] Then ACT was measured in the presence of different concentrations of the drug measured. Selected drug combinations were then tested to evaluate for potential synergy in action between the drug combination. The net ACT (ACT minus blood control ACT) was utilized to visualize the synergistic effect. […] The figures are presented in ng/mg wherein the density of blood and tissue are approximately the same.

[4] = In vivo drug release from / drug remaining on implanted stents (HPLC); set-up: species or system porcine; settings: 7 days, n = 5
Protocol: The percentage and/or amount of each anticoagulant drug for or by each time point indicated were analyzed for each stent from the different devices in the example and the average drug tissue concentration reported.
Tissue concentrations and the amount of drug released from the stents were measured using stents implanted in porcine arteries for the drugs as indicated. The arteries at the designated time point were excised and a length of stented artery spanning from 5 mm proximal to the stented segment to 5 mm distal to the stented segment was cut. The stented artery was cut longitudinally with surgical scissors. The stents were separated from the tissue. The tissue content of each drug was analyzed using liquid chromatography mass spectroscopy (LCMS) and reported as a mean for each of the timepoint indicated. For drug remaining on each stent, each drug was extracted from the stent, measured using HPLC, and reported as a mean for each of the timepoint indicated as drug released or drug remaining on a stent (where drug remaining is equal to 100% minus the percentage of drug released).

[5] = test system: blood clotting (citrated sheep blood); experiment: Net activated clotting time (net ACT) in citrated sheep blood (Examples 3-5); set-up: key: seconds; measured ACT minus blood control ACT (165 s); settings: single drug, blood control 165 seconds
Protocol: The activated clotting time (ACT) evaluation of anticoagulants was performed in calcium citrate sheep blood and recorded employing the Hemochron® Response device. The ACT measurements were made in citrated sheep blood. 1.9 ml of citrated sheep blood was added to a test tube containing an activator (Hemochron@Celite@ ACT tubes, Lot F8FTE026 from Accriva Diagnostics, Inc.). A target amount of drug solution was then added into the test tube. The test tube was gently swirled so that the blood and drug were well-mixed. 0.1 ml of 0.3M calcium chloride was then added. The tube was gently shaken before being inserted into the Hemochron Response detector. The ACT read out was recorded and reported. The ACT of the control blood in the absence of any drug as first determined to establish a baseline. Here the blood control measured is 165 seconds. Then ACT was determined in the presence of different concentrations of the drug as a single component. In the following study, the net ACT (measured ACT minus blood control ACT) was utilized to visualize the synergistic effect of direct factor Xa inhibitor (Rivaroxaban) and direct factor IIa inhibitor (Argatroban) drug combinations. The figures are presented in ng/mg wherein the density of blood and tissue are approximately the same.
Example 4 is the continuation of example 3, which employed the same method as in example 3. The only difference is that the direct factor Xa inhibitor Edoxaban is used in place of direct factor Xa inhibitor Rivaroxaban.
Example 5 is the continuation of example 3, which employed the same method as in example 3. The only difference is that the direct factor Xa inhibitor Betrixaban is used in place of direct factor Xa inhibitor Rivaroxaban.

Structure (SMILES): COc1ccc(-n2nc(C(N)=O)c3c2C(=O)N(c2ccc(N4CCCCC4=O)cc2)CC3)cc1 [Apixaban]
ACT [1]: 522

Cumulative Percent Release of drug: Rivaroxaban [4]: at least 88.9%
Cumulative Percent Release of drug: Rivaroxaban ([4]; listed as Rivamomaban): at least 99.7%
Structure (SMILES): O=C(NC[C@H]1CN(c2ccc(N3CCOCC3=O)cc2)C(=O)O1)c1ccc(Cl)s1 [Rivaroxaban]
inhibition of fibrin formation compared to bare metal control stents (porcine coronary artery; Table 9, day 7): effective at inhibiting fibrin formation
inhibition of fibrin formation compared to control (porcine coronary artery): effective at inhibiting fibrin formation compared to control at 7 days and at 28 days when it was released at a faster rate and/or at a larger dose; also recorded: not effective at inhibiting fibrin formation compared to control at 28 days when it was released at a slower rate and/or at a smaller dose; also recorded: more effective at inhibiting fibrin formation compared to control at 7 days and at 28 days; also recorded: not effective at inhibiting fibrin formation compared to control at 28 days
inhibition of fibrin formation compared to control (porcine coronary artery; listed as Rivamomaban): more effective at inhibiting fibrin formation compared to control at 7 days and at 28 days
IC50 [2]: 312 nM
IC50 for Tissue factor generated antiplatelet [2]: 0.136 ng/mg
net ACT [3]: 166 s
net ACT ([5]; 0.15 ng/mg): 114
net ACT ([5]; 0.3 ng/mg): 139
